PMC8398451, “Molecular Engineering of Curcumin, an Active Constituent of Curcuma longa L. (Turmeric) of the Family Zingiberaceae with Improved Antiproliferative Activity” (Plants, 2021)
Like-named read-outs stand apart in the source and are kept apart here.

How the values were obtained:
[1] = tested on: SK-MEL-28; assay: NCI antiproliferative SRB assay, Melanoma panel; format: cell-based, Human; conditions: for %GI / GP (growth percent): one dose 10 µM; for TGI / GI50 / CC50: 5-dose 0.01-100 µM; for GI50 / CC50: Homo sapiens; for CC50: read-out: LC50 (the source's name)
[2] = tested on: A498; assay: NCI antiproliferative SRB assay, Renal Cancer panel; format: cell-based, Human; conditions: for %GI / GP (growth percent): one dose 10 µM; for GI50 / CC50: Homo sapiens; for CC50: read-out: LC50 (the source's name)
[3] = tested on: NCI-H23; assay: NCI antiproliferative SRB assay, Non-Small Cell Lung Cancer panel; format: cell-based, Human; conditions: for %GI / GP (growth percent): one dose 10 µM; for TGI / GI50 / CC50: 5-dose 0.01-100 µM; for GI50 / CC50: Homo sapiens; for CC50: read-out: LC50 (the source's name)
[4] = tested on: MDA-MB-468; assay: NCI antiproliferative SRB assay, Breast Cancer panel; format: cell-based, Human; conditions: for %GI / GP (growth percent) / GI50 / TGI: MDA-MB-468; for %GI / GP (growth percent): one dose 10 µM; for LC50 (50% lethal concentration) / GI50: Homo sapiens; for LC50 (50% lethal concentration): MDA-MB-468, read-out: LC50; for GI50 / TGI: 5-dose 0.01-100 µM
Experimental: The antiproliferative activity of tested compounds was done against five dozen (60) cancer cell lines derived from nine different panels. All of the compounds were evaluated for antiproliferative activity in a single dose at 10 µM. Growth percent (GP) and percent growth inhibition (% GI) were used to calculate antiproliferative activity. […] The antiproliferative results of five-dose assay were calculated as three dose related parameters like, 50% growth inhibition (GI50), 50% lethal concentration (LC50), and total growth inhibition TGI [43, 44, 45, 46, 47].
Human tumor cell lines were grown in RPMI 1640 medium containing 5% fetal bovine serum and 2 mM L-glutamine. For a typical screening experiment, cells were inoculated into 96-well microtiter plates in 100 µL at plating densities ranging from 5000 to 40,000 cells/well, depending on the doubling time of individual cell lines. Two plates of each cell line were fixed in situ with trichloroacetic acid (TCA) after 24 h to represent a cell population measurement for each cell line at the time of drug addition (Ti). The experimental drugs were frozen after being solubilized in dimethyl sulfoxide at 400-fold the desired final maximum test concentration. An aliquot of frozen concentrate was thawed and diluted to twice the desired final maximum test concentration with medium containing 50 µg/mL gentamicin at the time of drug addition. Additional four, 10-fold, or ½ log serial dilutions serial dilutions were performed to provide a total of five drug concentrations plus the control. Aliquots of 100 µL of these different drug dilutions were added to the appropriate microtiter wells already containing 100 µL of medium, resulting in the required final drug concentrations. Following drug addition, the plates are incubated for an additional 48 h at 37 °C, 5% CO2, 95% air, and 100% relative humidity. For adherent cells, the assay is terminated by the addition of cold TCA. Cells are fixed in situ by the gentle addition of 50 µL of cold 50% (w/v) TCA (final concentration, 10% TCA) and incubated for 60 min at 4 °C. The supernatant is discarded, and the plates are washed five times with tap water and air dried. Sulforhodamine B (SRB) solution (100 µL) at 0.4% (w/v) in 1% acetic acid was added to each well, and plates were incubated for 10 min at room temperature. After staining, unbound dye was removed by washing five times with 1% acetic acid and the plates were air dried. Bound stain was subsequently solubilized with 10 mM trizma base, and the absorbance was read on an automated plate reader at a wavelength of 515 nm. For suspension cells, the methodology was the same except that the assay was terminated by fixing settled cells at the bottom of the wells by gently adding 50 µL of 80% TCA (final concentration, 16% TCA). […]
Antiproliferative activity
The anticancer screening was carried ou t as per the NCI US protocol. Using the seven absorbance measurements (time zero, (Ti), control growth, (C), and test growth in the presence of drug at the five concentration levels (Tf)), the percentage growth was calculated at each of the drug concentrations level as [( Tf−Ti × 100 for concentrations for which Tf ≥ Ti, and Tf−Ti × 100 for […]
concentrations for which Tf < Ti.
Three-dose response parameters (GI50, TGI, and LC50) were calculated for each of the experimental agents. Growth inhibition of 50% (GI50) was calculated from 100 × Tf−Ti = 50, , which was […]
the drug concentration resulting in a 50% reduction in the net protein increase (as measured by sulforhodamine B, SRB staining) in control cells during the drug incubation. The total growth inhibition (TGI) was calculated from Tf = Ti, which was the drug concentration resulting in total growth inhibition and signified the cytostatic effect. The LC50 was calculated from 100 × Tf−Ti = −50, , indicating a net loss […]
of cells following treatment which indicated the concentration of drug resulting in a 50% reduction in the […]

[5] = tested on: NCI/ADR-RES; assay: NCI antiproliferative SRB assay, Ovarian Cancer panel; format: cell-based, Human; conditions: for %GI / GP (growth percent): one dose 10 µM; for TGI / GI50 / CC50: 5-dose 0.01-100 µM; for GI50 / CC50: Homo sapiens; for CC50: read-out: LC50 (the source's name)
[6] = tested on: Leukemia cell line panel; assay: NCI antiproliferative assay, panel summary; format: cell-based, Human; conditions: for Mean % GI: 10 µM; for Selectivity Ratio (MID a:MID b) / GI50: 5-dose assay; for GI50: Homo sapiens
[7] = tested on: OVCAR-4; assay: NCI antiproliferative SRB assay, Ovarian Cancer panel; format: cell-based, Human; conditions: for %GI / GP (growth percent): one dose 10 µM; for TGI / GI50 / CC50: 5-dose 0.01-100 µM; for GI50 / CC50: Homo sapiens; for CC50: read-out: LC50 (the source's name)
[8] = tested on: A549/ATCC; assay: NCI antiproliferative SRB assay, Non-Small Cell Lung Cancer panel; format: cell-based, Human; conditions: for %GI / GP (growth percent): one dose 10 µM; for TGI / GI50 / LC50 (50% lethal concentration): 5-dose 0.01-100 µM; for GI50 / LC50 (50% lethal concentration): Homo sapiens
[9] = tested on: HOP-92; assay: as above; format: cell-based; conditions: for GI50 / CC50: Homo sapiens; for CC50: read-out: LC50 (the source's name)
[10] = target: T1, EGFR (Homo sapiens, UniProt P00533); assay: Spectrophotometric assay for EGFR tyrosine kinase inhibition in A431 cells; format: cell-based; conditions: absorbance at 540 nm
T1 construct: tested for anti-EGFR activity in human A431 cells, which express high levels of EGFR protein; endogenous in cells; host or cells: human A431 cells
T1 sequence (P00533 25-1210): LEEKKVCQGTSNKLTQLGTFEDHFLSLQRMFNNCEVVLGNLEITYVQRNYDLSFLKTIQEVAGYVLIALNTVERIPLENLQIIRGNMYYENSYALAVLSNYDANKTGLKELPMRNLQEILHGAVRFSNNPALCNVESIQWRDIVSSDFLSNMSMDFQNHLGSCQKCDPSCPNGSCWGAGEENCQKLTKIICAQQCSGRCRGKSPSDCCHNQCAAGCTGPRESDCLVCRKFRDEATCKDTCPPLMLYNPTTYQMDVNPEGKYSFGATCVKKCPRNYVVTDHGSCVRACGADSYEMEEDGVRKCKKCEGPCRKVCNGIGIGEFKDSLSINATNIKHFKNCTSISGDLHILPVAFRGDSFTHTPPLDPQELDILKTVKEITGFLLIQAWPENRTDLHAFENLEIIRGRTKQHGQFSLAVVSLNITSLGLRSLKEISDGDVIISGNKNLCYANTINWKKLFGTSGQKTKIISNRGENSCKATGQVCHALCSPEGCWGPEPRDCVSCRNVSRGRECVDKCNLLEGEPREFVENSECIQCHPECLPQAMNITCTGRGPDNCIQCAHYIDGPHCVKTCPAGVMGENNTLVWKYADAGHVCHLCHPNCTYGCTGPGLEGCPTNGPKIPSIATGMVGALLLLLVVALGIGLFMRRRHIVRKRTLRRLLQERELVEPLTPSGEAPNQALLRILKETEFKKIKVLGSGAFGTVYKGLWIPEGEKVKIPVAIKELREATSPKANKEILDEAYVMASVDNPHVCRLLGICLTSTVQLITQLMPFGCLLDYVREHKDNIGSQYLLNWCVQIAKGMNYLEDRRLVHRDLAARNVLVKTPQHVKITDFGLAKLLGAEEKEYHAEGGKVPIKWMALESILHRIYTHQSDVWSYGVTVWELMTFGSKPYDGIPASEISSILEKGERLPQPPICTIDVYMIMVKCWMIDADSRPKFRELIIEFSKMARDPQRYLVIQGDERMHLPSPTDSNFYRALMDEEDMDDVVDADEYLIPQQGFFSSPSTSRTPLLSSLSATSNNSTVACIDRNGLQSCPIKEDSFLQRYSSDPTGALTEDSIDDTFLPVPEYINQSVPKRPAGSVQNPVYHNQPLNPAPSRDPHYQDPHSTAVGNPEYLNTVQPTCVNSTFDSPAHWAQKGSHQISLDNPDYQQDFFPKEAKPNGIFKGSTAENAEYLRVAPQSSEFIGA

[11] = read-out: GI50 values, range over the leukemia panel
[12] = read-out: Sub Panel MID b (mean GI50 of panel)

In the case of `COc1ccc(/C=C/c2cc(/C=C/c3ccc(OC)c(O)c3)n(-c3cccc(Cl)c3)c(=S)n2)cc1O` [3a], the “%GI” value [1] is reported as 7.56%, the “GP (growth percent)” value [1] is reported as 92.44 and the “%GI” value [2] is reported as −4.38%. The “GP (growth percent)” value [2] was 104.38, the “%GI” value [3] was 9.05% and the “GP (growth percent)” value [3] was 90.95. For the same molecule, the “%GI” value [4] was 16.19%, the “GP (growth percent)” value [4] was 83.81 and the “%GI” value [5] was 3.63%. The “GP (growth percent)” value [5] was 96.37, the “Mean % GI” value [6] was 41.39% and the “%GI” value [7] was 17.45%. The “GP (growth percent)” value [7] was 82.55, the “%GI” value [8] was 27.44% and the “GP (growth percent)” value [8] was 72.56.
For `COc1ccc(NC(=O)n2nc(/C=C/c3ccc(O)c(OC)c3)cc2/C=C/c2ccc(O)c(OC)c2)cc1` [3b], the TGI [1] was 92.7 µM, the GI50 [1] was 3.52 µM and the CC50 [1] was over 100 µM. For the same molecule, the “%GI” value [1] was 65.47%, the “GP (growth percent)” value [1] was 34.53 and the TGI ([2]; 5-dose 0.01-100 µM) was 56.4 µM. For the same molecule, the GI50 ([2]; 5-dose 0.01-100 µM) was 17.2 µM, the CC50 ([2]; 5-dose 0.01-100 µM) was over 100 µM and the “%GI” value [2] was 17.53%. For the same molecule, the “GP (growth percent)” value [2] was 82.47, the TGI [3] was 63.8 µM and the GI50 [3] was 3.81 µM. For the same molecule, the CC50 [3] was over 100 µM, the “%GI” value [3] was 56.06% and the “GP (growth percent)” value [3] was 43.94. It also gave a TGI ([9]; 5-dose 0.01-100 µM) of over 100 µM, a GI50 ([9]; 5-dose 0.01-100 µM, read-out: GI50) of 7.77 µM and a CC50 ([9]; 5-dose 0.01-100 µM) of over 100 µM. The “%GI” value ([9]; one dose 10 µM) was 10.93%, the “GP (growth percent)” value ([9]; one dose 10 µM) was 89.07 and the LC50 (50% lethal concentration) [4] was over 100 µM. For the same molecule, the GI50 [4] was 3.55 µM, the TGI [4] was 21.6 µM and the “%GI” value [4] was 65.32%. The “GP (growth percent)” value [4] was 34.68, the IC50 [10] was 3.89 µM and the TGI [5] was over 100 µM. The GI50 [5] was 4.28 µM, the CC50 [5] was over 100 µM and the “%GI” value [5] was 76.11%. The “GP (growth percent)” value [5] was 23.89, the “Mean % GI” value [6] was 88.02% and the “Selectivity Ratio (MID a:MID b)” value [6] was 1.89. The GI50 [6, 11] was 1.52 to 3.38 µM, the GI50 [6, 12] was 2.59 µM and the TGI [7] was 90.7 µM. The GI50 [7] was 5.72 µM, the CC50 [7] was over 100 µM and the “%GI” value [7] was 48.49%. The “GP (growth percent)” value [7] was 51.51, the TGI [8] was 97.9 µM and the GI50 [8] was 5.5 µM. The LC50 (50% lethal concentration) [8] was over 100 µM, the “%GI” value [8] was 72.71% and the “GP (growth percent)” value [8] was 27.29.
Work on `COc1cc(/C=C/c2cc(/C=C/c3ccc(O)c(OC)c3)n(C(=O)Nc3ccc(C(F)(F)F)cc3)n2)ccc1O` [3c] yielded a TGI [1] of 5.90 µM, a GI50 [1] of 2.19 µM and a CC50 [1] of 23.9 µM. For the same molecule, the “%GI” value [1] was 42.01%, the “GP (growth percent)” value [1] was 57.99 and the GI50 ([2]; 5-dose 0.01-100 µM) was 5.81 µM. For the same molecule, the CC50 ([2]; 5-dose 0.01-100 µM) was 57.3 µM, the “%GI” value [2] was -8.03% and the “GP (growth percent)” value [2] was 108.03. The TGI [3] was 6.48 µM, the GI50 [3] was 2.13 µM and the CC50 [3] was over 100 µM. The “%GI” value [3] was 48.71%, the “GP (growth percent)” value [3] was 51.29 and the TGI ([9]; 5-dose 0.01-100 µM) was 6.79 µM. It also gave a GI50 [9] of 2.35 µM, a CC50 ([9]; 5-dose 0.01-100 µM) of over 100 µM and an LC50 (50% lethal concentration) [4] of over 100 µM. The GI50 [4] was 2.3 µM, the TGI [4] was 6.25 µM and the “%GI” value [4] was 56.21%. For the same molecule, the “GP (growth percent)” value [4] was 43.79, the IC50 [10] was 4.18 µM and the TGI [5] was over 100 µM. For the same molecule, the GI50 [5] was 3.51 µM, the CC50 [5] was over 100 µM and the “%GI” value [5] was 48.35%. For the same molecule, the “GP (growth percent)” value [5] was 51.65, the “Mean % GI” value [6] was 91.31% and the “Selectivity Ratio (MID a:MID b)” value [6] was 1.27. For the same molecule, the GI50 [6, 11] was 1.48 to 2.73 µM, the GI50 [6, 12] was 2.24 µM and the TGI [7] was 52.7 µM. For the same molecule, the GI50 [7] was 3.51 µM, the CC50 [7] was over 100 µM and the “%GI” value [7] was 23.29%. The “GP (growth percent)” value [7] was 76.71, the TGI [8] was over 100 µM and the GI50 [8] was 4.11 µM. The LC50 (50% lethal concentration) [8] was over 100 µM, the “%GI” value [8] was 57.05% and the “GP (growth percent)” value [8] was 42.95.
